# Source: patent publication US7998965B2, “Glutamate aggrecanase inhibitors” (Wyeth LLC, priority 2005, dated 2011)
# Like-named read-outs stand apart in the source and are kept apart here.
# Legend:
# [1] = molecular target: T1, purified recombinant human Aggrecanase-1 (rAgg1) (Homo sapiens, UniProt O75173); experiment: In vitro fluorescence screen for Aggrecanase-1 inhibitors; format: biochemical; details: for IC50: read-out: Agg1 IC50
# T1 sequence (O75173 213-837): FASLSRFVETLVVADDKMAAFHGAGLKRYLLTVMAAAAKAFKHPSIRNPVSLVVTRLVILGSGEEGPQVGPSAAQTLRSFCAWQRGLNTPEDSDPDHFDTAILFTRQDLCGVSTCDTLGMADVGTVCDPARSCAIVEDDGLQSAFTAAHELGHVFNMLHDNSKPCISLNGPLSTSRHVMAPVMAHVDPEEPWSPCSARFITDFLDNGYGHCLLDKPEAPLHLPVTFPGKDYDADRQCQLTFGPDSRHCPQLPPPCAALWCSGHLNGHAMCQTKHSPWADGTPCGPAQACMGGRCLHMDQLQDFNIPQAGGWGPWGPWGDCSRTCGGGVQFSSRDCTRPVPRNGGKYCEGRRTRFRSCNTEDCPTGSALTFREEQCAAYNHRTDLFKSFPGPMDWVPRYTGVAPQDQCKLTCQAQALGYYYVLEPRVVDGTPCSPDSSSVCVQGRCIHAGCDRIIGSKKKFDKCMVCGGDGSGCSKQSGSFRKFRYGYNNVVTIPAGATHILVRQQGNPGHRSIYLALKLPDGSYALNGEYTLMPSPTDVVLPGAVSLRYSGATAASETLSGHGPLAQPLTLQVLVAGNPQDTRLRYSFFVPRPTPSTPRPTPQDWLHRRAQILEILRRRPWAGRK
# [2] = molecular target: T2, purified recombinant human Aggrecanase-2 (Ag2t-Phe628-Strep) (Homo sapiens, UniProt Q9UNA0); experiment: In vitro fluorescence screen for Aggrecanase-2 inhibitors; format: biochemical; details: for IC50: read-out: Agg 2 IC50; for Ki: read-out: Ki Agg2
# T2 construct: the form used is denoted as Ag2t-Phe628-Strep (MW=41,737)
# T2 sequence (Q9UNA0 262-628): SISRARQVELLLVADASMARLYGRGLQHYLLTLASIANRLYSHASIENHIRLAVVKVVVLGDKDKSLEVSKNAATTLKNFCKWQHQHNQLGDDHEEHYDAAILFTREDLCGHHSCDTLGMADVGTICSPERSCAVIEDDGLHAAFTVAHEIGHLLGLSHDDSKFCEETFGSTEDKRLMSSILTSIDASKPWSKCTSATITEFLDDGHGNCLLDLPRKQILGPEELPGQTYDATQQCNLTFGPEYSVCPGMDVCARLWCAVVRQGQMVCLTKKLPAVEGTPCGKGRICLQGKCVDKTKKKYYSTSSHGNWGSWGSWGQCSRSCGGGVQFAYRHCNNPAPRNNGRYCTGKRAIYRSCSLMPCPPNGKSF
Compound,IC50 ([1]; Table 3) [nM],IC50 ([2]; Table 3) [nM],IC50 ([1]; Table 2) [nM],IC50 ([2]; Table 2) [nM],other results
"CC(C)(Cc1ccc(Cl)cc1)NC(=O)[C@H](CCC(=O)O)NC(=O)c1ccc(-c2cc(F)cc(F)c2)cc1 [Example 8DDDDDDD, N-[2-(4-chlorophenyl)-1,1-dimethylethyl]-N^2-[(3′,5′-difluorobiphenyl-4-yl)carbonyl]-L-α-glutamine]",< 30,220,–,–,–
"CC(C)(Cc1ccc(F)cc1)NC(=O)[C@H](CCC(=O)O)NC(=O)c1ccc(-c2ccc3c(c2)CCO3)cc1 [Example 8RRRRRRR, N^2-[4-(2,3-dihydro-1-benzofuran-5-yl)benzoyl]-N-[2-(4-fluorophenyl)-1,1-dimethylethyl]-L-α-glutamine]",70 to 210,–,–,–,inhibition at 1.2 µM ([2]; read-out: Agg 2 % at concentration): 48%
"O=C(O)CC[C@H](NC(=O)c1ccc(-c2ccccc2)cc1)C(=O)N[C@H](CO)Cc1ccccc1 [Example 8MMMMMM, N-[(1S)-1-benzyl-2-hydroxyethyl]-N^2-(biphenyl-4-ylcarbonyl)-L-α-glutamine]",–,–,550,5100,–
"COc1cc(COc2ccc(-c3ccc(C(=O)N[C@@H](CCC(=O)O)C(=O)NC(C)(C)Cc4ccc(F)cc4)cc3)cc2)cc(OC)c1 [Example 15N, N^2-({4′-[(3,5-dimethoxybenzyl)oxy]biphenyl-4-yl}carbonyl)-N-[2-(4-fluorophenyl)-1,1-dimethylethyl]-L-α-glutamine]",91,103,–,–,–
"COc1ccc(CCN(C)C(=O)[C@H](CCC(=O)O)NC(=O)c2ccc3c(c2)Cc2ccccc2-3)cc1OC [Example 8IIIIII, N-[2-(3,4-dimethoxyphenyl)ethyl]-N^2-(9H-fluoren-2-ylcarbonyl)-N-methyl-L-α-glutamine]",–,–,2900,11900,–
"CCC(C)(C)NC(=O)[C@H](CCC(=O)O)NC(=O)c1ccc(-c2ccccc2)cc1 [Example 8MM, N^2-(biphenyl-4-ylcarbonyl)-N^1-(1,1-dimethylpropyl)-L-α-glutamine]",–,–,–,–,"Ki ([1]; Table 1, enzyme not given, column follows Agg1 IC50, read-out: Ki): 126 nM; IC50 ([1]; Table 1): 58 nM; IC50 ([2]; Table 1): 980 nM"
"CC(C)(Cc1ccccc1)NC(=O)[C@H](CCC(=O)O)NC(=O)c1ccc(-c2ccc(-c3ccccc3)cc2)cc1 [Example 17U, N-(1,1-dimethyl-2-phenylethyl)-N^2-(1,1′:4′,1″-terphenyl-4-ylcarbonyl)-L-α-glutamine]",–,–,1800,~6700,–
"COc1ccc(-c2ccc(C(=O)N[C@@H](CCC(=O)O)C(=O)NC(C)(C)Cc3ccccc3)cc2)cc1OC [Example 17J, N^2-[(3′,4′-dimethoxybiphenyl-4-yl)carbonyl]-N-(1,1-dimethyl-2-phenylethyl)-L-α-glutamine]",–,–,~5600,~30000,–
"CC(C)(Cc1ccccc1)NC(=O)[C@H](CCC(=O)O)NC(=O)c1ccc(-c2ccc(F)c(F)c2)cc1 [Example 8GGGGGGG, N^2-[(3′,4′-difluorobiphenyl-4-yl)carbonyl]-N-(1,1-dimethyl-2-phenylethyl)-L-α-glutamine]",60,160,–,–,–
"CC(C)(Cc1ccc(F)cc1)NC(=O)[C@H](CCC(=O)O)NC(=O)c1ccc(-c2ccc(Cl)cc2)cc1 [N^2-[(4′-chlorobiphenyl-4-yl)carbonyl]-N-[2-(4-fluorophenyl)-1,1-dimethylethyl]-L-α-glutamine]",< 30,59,–,–,"Ki ([1]; Table 3, read-out: Ki Agg1): 6.7 nM; Ki ([2]; Table 3): 54 nM"
"O=C(O)CC[C@H](NC(=O)c1ccc2c(c1)C(=O)c1ccccc1-2)C(=O)NC12CC3CC(CC(C3)C1)C2 [Example 8YYYY, N^1-1-adamantyl-N^2-[(9-oxo-9H-fluoren-2-yl)carbonyl]-L-α-glutamine]",–,–,1500,> 200000,–
"COc1cc(CNC(=O)[C@H](CCC(=O)O)NC(=O)c2ccc(-c3ccc(O)cc3)cc2)cc(OC)c1OC [Example 17V, N^2-[(4′-hydroxybiphenyl-4-yl)carbonyl]-N-(3,4,5-trimethoxybenzyl)-L-α-glutamine]",–,–,90,1800,–
"CC(C)(Cc1ccc(Cl)cc1)NC(=O)[C@H](CCC(=O)O)NC(=O)c1ccc(-c2cc(F)ccc2F)cc1 [Example 8BBBBBBB, N-[2-(4-chlorophenyl)-1,1-dimethylethyl]-N^2-[(2′,5′-difluorobiphenyl-4-yl)carbonyl]-L-α-glutamine]",110,1000,–,–,–
"CC(C)(NC(=O)[C@H](CCC(=O)O)NC(=O)C1c2ccccc2-c2ccccc21)c1ccccc1 [Example 8NNNNN, N^2-(9H-fluoren-9-ylcarbonyl)-N^1-(1-methyl-1-phenylethyl)-L-α-glutamine]",–,–,1200,1890,–
"O=C(O)CC[C@H](NC(=O)c1ccc(Br)cc1)C(=O)NCC12CC3CC(CC(C3)C1)C2 [Example 18F, N-(1-adamantylmethyl)-N^2-(4-bromobenzoyl)-L-α-glutamine]",–,–,> 67000,> 67000,–
"O=C(O)CC[C@H](NC(=O)c1ccc(-c2ccc3occc3c2)cc1)C(=O)NCC12CC3CC(CC(C3)C1)C2 [Example 17BB, N-(1-adamantylmethyl)-N^2-[4-(1-benzofuran-5-yl)benzoyl]-L-α-glutamine]",–,–,3600,2900,–
"CC(C)(Cc1ccccc1)NC(=O)[C@H](CCC(=O)O)NC(=O)c1ccc(-c2ccc(C=O)s2)cc1 [N-(1,1-dimethyl-2-phenylethyl)-N^2-[4-(5-formyl-2-thienyl)benzoyl]-L-α-glutamine]",< 30,500,–,–,–
"COc1cc(COc2ccc(-c3ccc(C(=O)N[C@@H](CCC(=O)O)C(=O)NCCCCCCO)cc3)cc2)cc(OC)c1 [Example 19G, N^2-({4′-[(3,5-dimethoxybenzyl)oxy]biphenyl-4-yl}carbonyl)-N-(6-hydroxyhexyl)-L-α-glutamine]",–,–,270,146,–
"O=C(O)CC[C@H](NC(=O)c1ccc(C#CC2CCC(O)CC2)cc1)C(=O)NCc1ccccc1 (stereo partly drawn) [Example 17QQ, N-benzyl-N^2-{4-[(4-hydroxycyclohexyl)ethynyl]benzoyl}-L-α-glutamine]",–,–,> 25000,~22000,–
"CC(C)(Cc1ccc(F)cc1)NC(=O)[C@H](CCC(=O)O)NC(=O)c1ccc(-c2cccc(F)c2)cc1 [N^2-[(3′-fluorobiphenyl-4-yl)carbonyl]-N-[2-(4-fluorophenyl)-1,1-dimethylethyl]-L-α-glutamine]",< 30,77,–,–,"Ki ([1]; Table 3, read-out: Ki Agg1): 4.5 nM; Ki ([2]; Table 3): 81 nM"
"CC(C)(Cc1ccc(Cl)cc1)NC(=O)[C@H](CCC(=O)O)NC(=O)c1ccc(-c2ccc(F)cc2F)cc1 [Example 8AAAAAAA, N-[2-(4-chlorophenyl)-1,1-dimethylethyl]-N^2-[(2′,4′-difluorobiphenyl-4-yl)carbonyl]-L-α-glutamine]",80,550,–,–,–
"COc1ccc(-c2ccc(C(=O)N[C@@H](CCC(=O)O)C(=O)NCc3cc(OC)c(OC)c(OC)c3)cc2)cc1 [Example 17B, N^2-[(4′-methoxybiphenyl-4-yl)carbonyl]-N-(3,4,5-trimethoxybenzyl)-L-α-glutamine]",–,–,204,1020,–
"CC(C)(Cc1ccccc1)NC(=O)[C@H](CCC(=O)O)NC(=O)c1ccc(-c2cccs2)s1 [N^2-(2,2′-bithien-5-ylcarbonyl)-N-(1,1-dimethyl-2-phenylethyl)-L-α-glutamine]",< 30,200 to 600,–,–,–
"CC(C)(Cc1ccccc1)NC(=O)[C@H](CCC(=O)O)NC(=O)c1ccc(-c2ccc(F)c(Cl)c2)s1 [N^2-{[5-(3-chloro-4-fluorophenyl)-2-thienyl]carbonyl}-N-(1,1-dimethyl-2-phenylethyl)-L-α-glutamine]",< 30,60 to 200,–,–,"Ki ([1]; Table 3, read-out: Ki Agg1): < 3 nM; Ki ([2]; Table 3): 156 nM"
"CCc1ccc(-c2ccc(C(=O)N[C@@H](CCC(=O)O)C(=O)NCc3cc(OC)c(OC)c(OC)c3)cc2)cc1 [Example 17E, N^2-[(4′-ethylbiphenyl-4-yl)carbonyl]-N-(3,4,5-trimethoxybenzyl)-L-α-glutamine]",–,–,251,1040,–
"CCc1cccc(OCc2ccc(-c3ccc(C(=O)N[C@@H](CCC(=O)O)C(=O)NC(C)(C)Cc4ccccc4)cc3)cc2)c1 [Example 15AA, N-(1,1-dimethyl-2-phenylethyl)-N^2-({4′-[(3-ethylphenoxy)methyl]biphenyl-4-yl}carbonyl)-L-α-glutamine]",–,–,44,327,–
"O=C(O)CC[C@H](NC(=O)c1ccc(Oc2ccccc2)cc1)C(=O)NC12CC3CC(CC(C3)C1)C2 [Example 8ZZZZ, N^1-1-adamantyl-N^2-(4-phenoxybenzoyl)-L-α-glutamine]",–,–,> 17000,> 22000,–
